Experiment [1] deals with rats with heart failure. Kind of experiment: Heart failure models of rats induced by coronary artery ligation. Type of experiment: in vivo, Sprague Dawley rats. Particulars: 30 mpk p.o bid, 28 days. Here is the method:
Sprague Dawley rats (SD rats), male, weight of about 220 g during modeling. Before operation, the animals were anesthetized by intraperitoneal injection of sodium pentobarbital injection, and atropine was injected intraperitoneally to eliminate phlegm. After the rat was anesthetized and fixed in supine position, a ventilator was used for assisted breathing, the chest was opened between the third and fourth ribs, and the left anterior descending coronary artery was ligated with a 5-0 suture needle. After the ligation was completed, the chest cavity was closed, the skin was sutured, and the rats were put in an insulation blanket for recovery. The same operation was performed on the sham group, except for the silk ligature operation. After the operation, the rats were subjected to intramuscular injection of meloxicam for pain relief, intraperitoneal injection of gentamicin sulfate injection for eliminating infection, and intraperitoneal injection of lidocaine for preventing ventricular fibrillation. One week after the animals recovered from surgery, the model rats were divided into a model group and a therapeutic drug group (compound 102 group), and the vehicle and compound 102 were administered by gavage, respectively, twice a day for four consecutive weeks. During the experiment, the living status of the animals were observed and abnormal conditions were recorded to evaluate the safety of the compound; and administration was performed for 28 days. The animals were anesthetized by intraperitoneal injection of sodium pentobarbital on the second day after the last administration, and echocardiographic detection and hemodynamic detection were performed to evaluate the effect of the compound on cardiac systolic function and ventricular volume. After the end of the experiment, end point treatment was performed, and the heart was taken for material collection for subsequent related researches on cGMP and protein expression. One week after the animals recovered from surgery, the rats were anesthetized with isoflurane, and a small animal ultrasound imaging system Vevo was used to examine the left ventricular function of the model rats. The model was considered successful if the LVEF % was reduced by 30%. Except for the sham group, the animals were randomly divided into 2 groups according to LVEF % and body weight. The number of animals in each group and the method of administration were as follows: [table] At the end of the experiment, rats were sacrificed and the infarct heart tissue was fixed with 4% formaldehyde, dehydrated, embedded in paraffin, and sectioned. Collagen deposition status was observed under a microscope by means of using Sirius red staining, and the Leica aperio digital slice scanning system was used for scanning analysis. The main evaluation indexes are LVEF % (left ventricular ejection fraction), FS (left ventricular fractional shortening), ESV (left ventricular end-systolic volume), EDV (left ventricular end-diastolic volume), and heart rate (HR). At the end of the experiment, the proportion of Sirius red in peri-infarction zone was quantified to evaluate the collagen deposition status. The data was represented by Mean±S.E.M, and Graphpad Prism 5.0 was used for statistical mapping. Statistical analysis was performed with T-test.

Experiment [2] deals with HEK293T cells double transfected with human PDE9A2 and natriuretic peptide protein receptor 1 (NPR1). Kind of experiment: Effect on cGMP content in transiently transfected HEK293T cells (ANF-stimulated, cGMP ELISA). It counts as cell-based. Particulars: ANF 1 μM; compound 0.12-30 μM; FIG. 1. (ELISA stands for enzyme-linked immunosorbent assay.)
Method: Cell name: Human embryonic kidney cell HEK293T
HEK293T cells were plated in a 6-well plate at 2×10^6 cells/well and cultured for 6 h to allow for adherence of cells.
The medium of each well was changed to 1.5 mL DMEM complete medium;
Non-transfected wells: An equal volume of DMEM complete medium (700 μL DMEM complete medium) was added to non-transfected wells.
The medium was aspirated from each well. The cells were washed once with PBS, and 250 μL of 0.5 M perchloric acid was added.
The cells were collected with a cell scraper, and transferred into a 1.5 mL centrifuge tube. After homogeneously mixing by vortex, the cells were centrifuged at 6000 g for 20 min at 4° C. […]
The plate was washed thoroughly 5 times, then 200 μL of Ellman's Reagent was added to each well. The plate was sealed, shaken in the dark, and color-developed for 60 min, and then detected for absorbance value at 412 nm.
Firstly, the non-specific binding (the reading of each well minus the reading of the NSB well) was subtracted, and then B/B0 was calculated, that is, the ratio of the binding of the sample or standard to the maximum binding, and converted according to the following formula, and then the obtained logit(B/B0) and lg (compound concentration) were subjected to linear regression analysis to obtain a standard curve. logit(B/B0)=ln[B/B0/(1−B/B0)] […]

Take `CCc1cc2c(N3CCC(C)(OC)CC3)c(C#N)c(=O)[nH]c2cn1` [Compound 102, 6-ethyl-4-(4-methoxy-4-methylpiperidin-1-yl)-2-oxo-1,2-dihydro-1,7-diazanaphthalene-3-carbonitrile]: in experiment [1] (Mean ± S.E.M, Sirius red staining, P<0.001 vs model group), the “Percentage (%) of collagen deposition in the peri-infarction zone” value was found to be 21.5 ± 1.234 %. Further, in experiment [1] (compared with model group P<0.001), the “collagen deposition in the peri-infarction zone (in words)” value was “significantly reduce”. Besides, in experiment [1] (vs model group P<0.001, FIG. 3), the “LVEF (left ventricular ejection fraction)” value was “improve the reduction”. Further, the “FS (left ventricular fractional shortening)” value in experiment [1] (vs model group P<0.001, FIG. 4) is recorded as “improve the reduction”. In addition, in experiment [1] (vs model group P<0.01, FIG. 5), the “ESV (left ventricular end-systolic volume)” value is “significant improvement effect”. For the same compound, in experiment [1] (vs model group P<0.05, FIG. 6), the “EDV (left ventricular end-diastolic volume)” value is given as “significant improvement effect”. Besides, the “cGMP content in HEK293T cells” value in experiment [2] is recorded as “Up-regulation effect”.

The values are drawn from patent US12465601B2, “Uses of phosphodiesterase inhibitors” (TRANSTHERA SCIENCES (NANJING), INC., priority 2019, dated 2025).
